Test results: patent publication US20210077382A1, “COMPOSITIONS, DEVICES, AND METHODS FOR THE TREATMENT OF OPIOID-RECEPTOR-MEDIATED CONDITIONS” (Opiant Phamaceuticals, Inc., priority 2016, published 2021)

Assay: Clinical pharmacokinetic crossover study of IN, IM and oral naltrexone; plasma naltrexone and 6β-naltrexol by LC-MS/MS
Source text: Study Goals. […] Secondary endpoints included adverse events (AEs), vital signs (heart rate, sitting blood pressure, and respiration rate), electrocardiogram (ECG), clinical laboratory changes and nasal irritation using the nasal irritation scale.
Study design. […] This was an in-patient open-label, crossover study involving approximately 14 healthy volunteers. […] Subjects stayed in the in-patient facility for 13 days to complete the entire study. Subjects were called 3 to 5 days after discharge to inquire concerning AEs and concomitant medications since discharge. Informed consent was obtained from all subjects, and all were screened for eligibility to participate in the study, including medical history, physical examination, clinical chemistry, coagulation markers, hematology, infectious disease serology, urinalysis, urine drug and alcohol toxicology screen, vital signs and ECG.
On days of study drug administration, a 12-lead ECG was performed approximately 1 hour prior to dosing and at approximately 1 and 4 hours post-dose. Vital signs were measured pre-dose and about 1 and 4 hours post-dose.
Study Drugs and Dosing. […] The IN (40 mg/mL) formulations were made by the staff pharmacist at Vince & Associates; the vehicle for the IN formulations was sterile water for injection. The IM formulation (2 mg/mL) was made by the staff pharmacist at Vince & Associates; the vehicle was sterile saline for injection.
Subjects stayed in the in-patient facility for 13 days to complete the entire study and were discharged 2 days after the fourth dose.
PK Assessments. […] Plasma was separated from whole blood and stored frozen at […] until assayed.
Analysis. […] Dose-adjusted values for AUCs and Cmax were calculated. The relative extent of IN and PO absorption (IN and PO versus IM) will be estimated from the dose-corrected AUCs.

[1] = naltrexone 2 mg IM, N = 10, listed as 6β-Naltrexol
[2] = naltrexone 4 mg IN plus […] Intravail, N = 12

Oc1ccc2c3c1O[C@H]1[C@H](O)CC[C@@]4(O)[C@@H](C2)N(CC2CC2)CC[C@]314 [6β-naltrexol]
Difference between the sexes for the PK parameters (IN, IM or PO administration, except naltrexone Cmax after 4 mg IN): no clinically meaningful difference | Mean Cmax of 6β-naltrexol (after the IN administration of naltrexone): approximately 3 ng/mL | Ratio of AUC0-inf for 6β-naltrexol compared to that of naltrexone (after the oral dose): 25 | AUC0-inf of 6β-naltrexol, mean (CV %) (naltrexone 2 mg IM, N = 10): 27.1 ng·h/mL | AUC0-inf/Dose of 6β-naltrexol, mean (CV %) (naltrexone 2 mg IM, N = 10): 15.0 (19.0) h · ng/mL/mg | AUC0-t of 6β-naltrexol, mean (CV %) (naltrexone 2 mg IM, N = 10): 25.1 (18.3) h · ng/mL | AUC0-t/Dose of 6β-naltrexol, mean (CV %) (naltrexone 2 mg IM, N = 10): 13.9 (18.3) h · ng/mL/mg | AUCextrap of 6β-naltrexol, mean (CV %) (naltrexone 2 mg IM, N = 10): 7.02 (29.4) % | Cmax of 6β-naltrexol, mean (CV %) (naltrexone 2 mg IM, N = 10): 1.5 ng/mL | Cmax/Dose of 6β-naltrexol, mean (CV %) (naltrexone 2 mg IM, N = 10): 0.838 ng/mL/mg | Tmax of 6β-naltrexol, median (minimum, maximum) (naltrexone 2 mg IM, N = 10): 3.00 h | t1/2 of 6β-naltrexol, mean (CV %) (naltrexone 2 mg IM, N = 10): 12.4 (13.2) h | λz of 6β-naltrexol, mean (CV %) (naltrexone 2 mg IM, N = 10): 0.0570 (14.8) 1/h | Cmax of 6β-naltrexol, mean (CV %) [1]: 1.52 (26.8) ng/mL | Cmax/Dose of 6β-naltrexol, mean (CV %) [1]: 0.838 (26.8) ng/mL/mg | Mean concentration of 6β-naltrexol (naltrexone 2 mg IN, hour 0): 0.0661 ng/mL | Mean concentration of 6β-naltrexol (naltrexone 2 mg IN, hour 0.042): 0.0627 ng/mL | Mean concentration of 6β-naltrexol (naltrexone 2 mg IN, hour 0.083): 0.12 ng/mL | Mean concentration of 6β-naltrexol (naltrexone 2 mg IN, hour 0.17): 0.283 ng/mL | Mean concentration of 6β-naltrexol (naltrexone 2 mg IN, hour 0.25): 0.454 ng/mL | Mean concentration of 6β-naltrexol (naltrexone 2 mg IN, hour 0.33): 0.677 ng/mL | Mean concentration of 6β-naltrexol (naltrexone 2 mg IN, hour 0.5): 0.852 ng/mL | Mean concentration of 6β-naltrexol (naltrexone 2 mg IN, hour 0.75): 1.08 ng/mL | Mean concentration of 6β-naltrexol (naltrexone 2 mg IN, hour 1): 1.1 ng/mL | Mean concentration of 6β-naltrexol (naltrexone 2 mg IN, hour 2): 1.39 ng/mL | Mean concentration of 6β-naltrexol (naltrexone 2 mg IN, hour 3): 1.48 ng/mL | Mean concentration of 6β-naltrexol (naltrexone 2 mg IN, hour 4): 1.46 ng/mL | Mean concentration of 6β-naltrexol (naltrexone 2 mg IN, hour 6): 1.3 ng/mL | Mean concentration of 6β-naltrexol (naltrexone 2 mg IN, hour 8): 1.08 ng/mL | Mean concentration of 6β-naltrexol (naltrexone 2 mg IN, hour 12): 0.81 ng/mL | Mean concentration of 6β-naltrexol (naltrexone 2 mg IN, hour 16): 0.595 ng/mL | Mean concentration of 6β-naltrexol (naltrexone 2 mg IN, hour 24): 0.365 ng/mL | Mean concentration of 6β-naltrexol (naltrexone 2 mg IN, hour 30): 0.255 ng/mL | Mean concentration of 6β-naltrexol (naltrexone 2 mg IN, hour 36): 0.18 ng/mL | Mean concentration of 6β-naltrexol (naltrexone 2 mg IN, hour 48): 0.106 ng/mL | Mean concentration of 6β-naltrexol (naltrexone 4 mg IN + […] Intravail, hour 0): 0.0682 ng/mL | Mean concentration of 6β-naltrexol (naltrexone 4 mg IN + […] Intravail, hour 0.042): 0.082 ng/mL | Mean concentration of 6β-naltrexol (naltrexone 4 mg IN + […] Intravail, hour 0.083): 0.238 ng/mL | Mean concentration of 6β-naltrexol (naltrexone 4 mg IN + […] Intravail, hour 0.17): 0.994 ng/mL | Mean concentration of 6β-naltrexol (naltrexone 4 mg IN + […] Intravail, hour 0.25): 1.86 ng/mL | Mean concentration of 6β-naltrexol (naltrexone 4 mg IN + […] Intravail, hour 0.33): 2.55 ng/mL | Mean concentration of 6β-naltrexol (naltrexone 4 mg IN + […] Intravail, hour 0.5): 2.84 ng/mL | Mean concentration of 6β-naltrexol (naltrexone 4 mg IN + […] Intravail, hour 0.75): 2.93 ng/mL | Mean concentration of 6β-naltrexol (naltrexone 4 mg IN + […] Intravail, hour 1): 2.73 ng/mL | Mean concentration of 6β-naltrexol (naltrexone 4 mg IN + […] Intravail, hour 2): 2.9 ng/mL | Mean concentration of 6β-naltrexol (naltrexone 4 mg IN + […] Intravail, hour 3): 2.61 ng/mL | Mean concentration of 6β-naltrexol (naltrexone 4 mg IN + […] Intravail, hour 4): 2.45 ng/mL | Mean concentration of 6β-naltrexol (naltrexone 4 mg IN + […] Intravail, hour 6): 2.03 ng/mL | Mean concentration of 6β-naltrexol (naltrexone 4 mg IN + […] Intravail, hour 8): 1.67 ng/mL | Mean concentration of 6β-naltrexol (naltrexone 4 mg IN + […] Intravail, hour 12): 1.25 ng/mL | Mean concentration of 6β-naltrexol (naltrexone 4 mg IN + […] Intravail, hour 16): 0.923 ng/mL | Mean concentration of 6β-naltrexol (naltrexone 4 mg IN + […] Intravail, hour 24): 0.618 ng/mL | Mean concentration of 6β-naltrexol (naltrexone 4 mg IN + […] Intravail, hour 30): 0.457 ng/mL | Mean concentration of 6β-naltrexol (naltrexone 4 mg IN + […] Intravail, hour 36): 0.312 ng/mL | Mean concentration of 6β-naltrexol (naltrexone 4 mg IN + […] Intravail, hour 48): 0.175 ng/mL | AUC0-inf of 6β-naltrexol, mean (CV %) [2]: 46.3 (18.3) h · ng/mL | AUC0-inf/Dose of 6β-naltrexol, mean (CV %) [2]: 12.8 (18.3) h · ng/mL/mg | AUC0-t of 6β-naltrexol, mean (CV %) [2]: 43.0 (17.4) h · ng/mL | AUC0-t/Dose of 6β-naltrexol, mean (CV %) [2]: 11.9 (17.4) h · ng/mL/mg | AUCextrap of 6β-naltrexol, mean (CV %) [2]: 7.02 (37.3) % | Cmax of 6β-naltrexol, mean (CV %) [2]: 3.29 (23.7) ng/mL | Cmax/Dose of 6β-naltrexol, mean (CV %) [2]: 0.908 (23.7) ng/mL/mg | Tmax of 6β-naltrexol, median (minimum, maximum) [2]: 0.75 h | t1/2 of 6β-naltrexol, mean (CV %) [2]: 12.8 (14.6) h
